Our source for the EC50 values is publication PMC8242467 (Cell Reports, 2021).

For this test, the target named is T1, mitochondrial calcium uniporter (MCU) (Homo sapiens, UniProt Q8NE86).
T1 sequence (Q8NE86 51-351): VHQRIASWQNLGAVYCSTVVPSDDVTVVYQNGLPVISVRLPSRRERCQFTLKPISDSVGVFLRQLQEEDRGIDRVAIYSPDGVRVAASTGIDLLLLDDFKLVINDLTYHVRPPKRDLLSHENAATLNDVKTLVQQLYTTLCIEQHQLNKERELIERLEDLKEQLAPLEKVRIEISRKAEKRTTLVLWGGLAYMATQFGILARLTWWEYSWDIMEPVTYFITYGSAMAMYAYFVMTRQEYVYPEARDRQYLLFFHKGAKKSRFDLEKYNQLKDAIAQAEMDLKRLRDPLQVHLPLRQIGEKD
Put plainly: mitochondrial Ca2+ uptake in permeabilized HeLa cells. In kind it is cell-based.

Where a name gives a salt, the structure may show the parent alone.

On to `CCC(C)(C)c1ccc(CC(C)CN2C[C@@H](C)O[C@@H](C)C2)cc1` (stereo partly drawn) [amorolfine, (2R,6S)-2,6-dimethyl-4-[2-methyl-3-[4-(2-methylbutan-2-yl)phenyl]propyl]morpholine;hydrochloride], for which the EC50 (usually the concentration that produces a half-maximal response) worked out at 86.9 µM.
